Settings in one data set: not given
In general, boiling point refers to the temperature of boiling at a given pressure. As a reminder, the melting point is the temperature of the solid-liquid transition. For `CC(=O)Nc1ccc(N)cc1`, the boiling point is 267 °C, the melting point turned out to be 166 °C and the ready biodegradability entry is given as “readily biodegradable”.

In the case of `CCN(CC)CCOC(=O)C(O)(c1ccccc1)c1ccccc1`, the melting point was found to be 51 °C. Take `CCOC(C)C`: the boiling point turned out to be 54.1 °C.

Compound `CCCCC1CCCC1` gave a boiling point of 157 °C, a log10 vapour pressure (mmHg) of 0.602 and a melting point of -108 °C. `O=[N+]([O-])c1ccc(Sc2ccc([N+](=O)[O-])cc2)cc1` returned a melting point of 160 °C. As to `CCCCC(=O)Cl`, the boiling point came to 109 °C and the melting point was -110 °C. The compound `Oc1c2ccccc2cc2ccccc12` yielded a melting point of 152 °C. The compound `CCN(CC)c1cccc2ccccc12` came in with a boiling point of 285 °C. On to `O=C(O)c1ccccc1[N+](=O)[O-]`, for which the melting point stood at 148 °C and the ready biodegradability entry is “readily biodegradable”. In the case of `O=C(Nc1ccccc1)NC1CCCC1`, the log10 Koc (L/kg) amounted to 1.93.

The compound `Cc1ccc(N)c(N)c1` displayed a boiling point of 265 °C, a log10 vapour pressure (mmHg) of -3.2 and a melting point of 89.5 °C. The compound `CO[C@@H]1[C@H](OC(=O)/C=C/C=C/C=C/C=C/C(=O)O)CC[C@]2(CO2)[C@H]1[C@@]1(C)O[C@@H]1CC=C(C)C` gave a melting point of 194 °C. As to `CCCC(C)Br` (stereo not given), the boiling point was 117 °C, the log10 vapour pressure (mmHg) was found to be 1.33 and the melting point was -95.5 °C.

The compound `Cc1ncc2n1-c1ccc(Cl)cc1C(c1ccccc1F)=NC2` displayed a melting point of 159 °C. Take `O=C1C=C(Cl)C(=O)O1`: the boiling point amounted to 196 °C and the melting point worked out at 33 °C. As to `Nc1ccc(Cc2ccc(N)c(Cl)c2Cl)c(Cl)c1Cl`, the ready biodegradability entry is on record as “not readily biodegradable”. Turning to `O=C(O)c1cc(Cl)c(C(=O)O)cc1Cl`, the melting point is 306 °C. `CC1=CC[C@@H]2[C@H]3[C@@H](C(C)C)CC[C@]2(C)[C@@H]13` showed a boiling point of 248 °C. In turn, `O=C(NC(=O)c1c(F)cccc1F)Nc1ccc(CO/N=C(/c2ccc(Cl)cc2)C2CC2)cc1` returned a log10 vapour pressure (mmHg) of -9.39. As to `C1COCCN1`, the boiling point stood at 128 °C, the log10 vapour pressure (mmHg) came out at 1, the melting point was -4.9 °C and the ready biodegradability entry is “not readily biodegradable”.

`Nc1nc(=O)cc(Cl)[nH]1` displayed a melting point of 262 °C. Consider `Clc1ccc(-c2c(Cl)cccc2Cl)cc1`, for which the log10 Henry constant (atm·m³/mol) is -3.7 and the log10 Koa amounted to 7.72. In turn, `C1=CCCCCCC1` showed a melting point of -12 °C. `Cc1cc(N)ccc1O` yielded a melting point of 176 °C. For the compound `O=[N+]([O-])c1ccc(NS(=O)(=O)c2ccc(Cl)c(C(F)(F)F)c2)c(Cl)c1`, the melting point was 170 °C.

The compound `c1coc(CSSCc2ccco2)c1` yielded a melting point of 10 °C. On the same count and under the same terms, the figure for `CN1C[C@@H]2C[C@H](C1)c1cccc(=O)n1C2` is 137 °C.

As for `ClCc1cccc(Cl)c1`, the boiling point came to 216 °C. On to `CC(=O)[C@@]1(O)CC[C@H]2[C@@H]3CC[C@H]4C[C@@H](O)CC[C@]4(C)[C@H]3CC[C@@]21C`, for which the melting point is 265 °C. Turning to `CCCCCCN`, the boiling point stood at 133 °C, the log10 Henry constant (atm·m³/mol) was -4.57, the log10 vapour pressure (mmHg) turned out to be 0.954 and the melting point is -22.9 °C. The ready biodegradability entry was “readily biodegradable”.

As to `Clc1ccc(OCOCC#CI)cc1`, the ready biodegradability result is reported as “not readily biodegradable”. In turn, `N#CC(=NO)c1ccccc1` gave a melting point of 129 °C. The same measure, in the same setting: the same measure for `CCCCP(=O)(CCCC)CCCC`: 64 °C; for `C[C@]12CC[C@H]3[C@@H](CCC4=CC(=O)CC[C@@]43C)[C@@H]1CC[C@@H]2OC(=O)CCC1CCCC1`: 155 °C; for `Cc1ccc(S(=O)(=O)C2(C(=O)OC(C)C)CC2)cc1`: 65.5 °C. The compound `Oc1ccc(Br)c2cccnc12` had a melting point of 124 °C. Compound `CCCCCCOC=O` registered a boiling point of 156 °C and a melting point of -62.6 °C.

`CC(C)(C)CC(C)(C)C` came in with a boiling point of 122 °C, a log10 vapour pressure (mmHg) of 1.3 and a melting point of -66.5 °C. Regarding `CCCB(O)O`, the melting point was 107 °C. Regarding `CC(C)(C)C1=CC(=O)C=C(C(C)(C)C)C1=O`, the melting point came to 66 °C. Still for that read-out and setting: the same measure for `Cc1ccc(S(=O)(=O)NC(=O)NC2CCCCC2)cc1`: 175 °C.

In the case of `CCNC=O`, the boiling point was determined as 198 °C. In the case of `CCCCOC(=O)c1ccc(C(=O)OCCCC)c(C(=O)OCCCC)c1`, the ready biodegradability entry was “readily biodegradable”.

As to `FC(Cl)(Br)Br`, the boiling point came to 80.3 °C. Consider `Cc1cc(C)cc(NC(=O)N(C)C)c1`, for which the log10 Koc (L/kg) amounted to 1.73. Compound `O=[N+]([O-])c1ccc(Sc2ccccc2)cc1` gave a melting point of 56 °C. As for `C[C@]12Cc3nonc3C[C@@H]1CC[C@@H]1[C@@H]2CC[C@@]2(C)[C@H]1CC[C@]2(C)O`, the melting point stood at 152 °C. As to `CCCCNS(=O)(=O)c1ccccc1`, the boiling point amounted to 314 °C and the ready biodegradability result is listed as “not readily biodegradable”. Regarding `FC(F)(F)c1cccc(Br)c1`, the boiling point was determined as 152 °C and the melting point is 1 °C.

`O=C1CCC(c2ccccc2)O1` (stereo not given) returned a boiling point of 306 °C and a melting point of 36.5 °C.

For `CCNCc1ccccc1`, the boiling point stood at 194 °C. `Clc1ccc(Oc2ccccc2Cl)cc1Cl` displayed a log10 vapour pressure (mmHg) of -3.85. Take `CN(C)C(=O)Nc1ccc(F)cc1`: the log10 Koc (L/kg) worked out at 1.43. Consider `CC(=O)Oc1ccccc1C(=O)Oc1ccccc1`, for which the melting point came out at 96 °C. In the case of `Nc1ncnc(Nc2ccc(Cl)cc2)n1`, the melting point stood at 234 °C. As for `c1ccc(N(c2ccccc2)c2ccccc2)cc1`, the boiling point came out at 365 °C, the log10 Koc (L/kg) was found to be 2.26 and the melting point amounted to 127 °C. In the case of `C[Si](C)(Cl)CCl`, the boiling point was determined as 116 °C.

With `Cc1ccc2ccc3ccccc3c2c1`, the boiling point stood at 350 °C and the melting point worked out at 65 °C. Regarding `COc1c(Cl)c(C)c2c(c1Cl)OC(=O)c1c(C)c(Cl)c(O)c(Cl)c1O2`, the melting point was 232 °C. The compound `CCCCC(=O)C(C)C` returned a boiling point of 158 °C. With `Nc1ccc2c(c1N)C(=O)c1ccccc1C2=O`, the melting point was 290 °C. `CCc1c(C(=O)O)c(=O)cnn1-c1ccc(Cl)cc1` yielded a melting point of 269 °C. `Cc1ccccc1F` registered a boiling point of 115 °C, a log10 vapour pressure (mmHg) of 1.39 and a melting point of -62 °C. On to `CCOC(=O)[C@H](C)Cl`, for which the boiling point was determined as 147 °C and the log10 vapour pressure (mmHg) turned out to be 0.557. On to `CCSCC[C@H](N)C(=O)O`, for which the melting point is 195 °C. Same read-out and setting: the figure for `CCCC(C(N)=O)n1nnc2ccccc21` (stereo not given) is 125 °C. On to `Clc1ccc(C(Cl)c2ccccc2)cc1` (stereo not given), for which the ready biodegradability entry is given as “not readily biodegradable”. Compound `C#C[C@]1(O)CC[C@H]2[C@@H]3CCc4cc(OC)ccc4[C@H]3CC[C@@]21C` showed a melting point of 150 °C. For `CCOCCOc1ccccc1`, the boiling point stood at 230 °C.

Take `Cc1ccc(Cl)c(O)c1`: the boiling point was found to be 213 °C, the melting point stood at 50.8 °C and the ready biodegradability entry is recorded as “not readily biodegradable”. As for `CC(C)CCCC(C)N` (stereo not given), the boiling point stood at 155 °C.

Regarding `CC(C(=O)O)c1cccc(C(=O)c2ccccc2)c1` (stereo not given), the melting point worked out at 94 °C.

`CC(C(=O)O)c1ccc(C2CCC/C(=N\O)C2)cc1` (stereo not given) came in with a melting point of 178 °C.

Still in this data set, the particulars now being: fish.
The compound `C1COCCN1` gave a log10 BCF of 0.45. Compound `Clc1ccc(-c2c(Cl)cccc2Cl)cc1` yielded a log10 biotransformation half-life (days) of 2.44. Take `Clc1cc(Cl)c2cc(Cl)ccc2c1`: the log10 BCF is 4.43.

As to `Cc1ccc(Cl)c(O)c1`, the log10 BCF turned out to be 0.67.
